Test results as given in ChEMBL document CHEMBL1201862, “PubChem BioAssay data set” (2004).
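Dose response: 5 concentrations. Exposure: 48 h. Format: 96-well plates. Endpoint: linear interpolation; highest concentration if not reached. GI50 = concentration required for 50% inhibition of growth.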 Activity calls are given as the source filed them. No stated cut-off is given here; in the data, active = GI50 up to about 1.1 µM and inactive = higher.

Tests used:
Assay in all cases: NCI-60 cell line screen, 48 h
[1] = tested on: HOP-18
[2] = tested on: LXFL 529
[3] = tested on: RXF 631
[4] = tested on: SNB-78
[5] = tested on: Hs-578T
[6] = tested on: BT-549
[7] = tested on: DMS-114
[8] = tested on: DLD-1

Row | Compound | GI50 [4] | GI50 [5] | GI50 [6] | also measured
1 | CCCOC(=O)CCC(NC(=O)c1ccc(Nc2nc3ccccc3nc2-c2cccs2)cc1)C(=O)OCCC (stereo not given) | > 100 µM (inactive) | – | – | GI50 [1]: > 100 µM (inactive); GI50 [2]: > 100 µM (inactive); GI50 [3]: > 100 µM (inactive)
2 | COc1ccc(NC2=NCCO2)c2ccccc12 | – | > 10 µM (inactive) | – | –
3 | O=c1c2cc(I)ccc2nc(-c2cccs2)n1Nc1ccccc1 | – | – | 3.14 µM (inactive) | –
4 | CC1C/C(=C\c2ccc(O)c(O)c2)C(=O)/C(=C/c2ccc(O)c(O)c2)C1 (stereo not given) | – | 4.06 µM (inactive) | – | –
5 | Nc1nc(=S)[nH]c2nc3c(c(-c4ccccc4)c12)CCCC3 | – | 51.9 µM (inactive) | > 100 µM (inactive) | –
6 | Cc1cccc2c1Sc1ccccc1C2NC(=O)CN(C)C (stereo not given) | > 100 µM (inactive) | – | – | GI50 [7]: > 100 µM (inactive); GI50 [2]: > 100 µM (inactive)
7 | C=CC(Br)(CBr)CCC(Cl)C(C)C (stereo not given) | – | 2.58 µM (inactive) | 1.6 µM (inactive) | –
8 | O=Cc1c(Br)[nH]c2ccccc12 | > 67 µM (inactive) | – | – | GI50 [8]: > 100 µM (inactive); GI50 [1]: 61.1 µM (inactive)
9 | CN(C)C(=S)SCc1ccccc1 | – | > 100 µM (inactive) | 87.9 µM (inactive) | –
10 | O=C(NCCCNC(=O)c1ccc2cc(O)c(O)cc2c1)c1ccc2cc(O)c(O)cc2c1 | – | – | 26.9 µM (inactive) | –
